Experimental data from publication PMC7311426, “An amphipathic peptide with antibiotic activity against multidrug-resistant Gram-negative bacteria” (Nature Communications, 2020).
In brackets after ≈: the same amount, converted by molar mass. Residues, ends and D or L forms follow the SMILES beside them.

How the values were obtained:
P. aeruginosa [1] = conditions: P. aeruginosa ATCC 27853; quality control range printed beside broth microdilution MIC of parent strain; cited from earlier work
[2] = test system: K. pneumoniae clinical isolates; assay: microbe, parasite or virus in culture
How it was run: (§1)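 MIC90 from CLSI broth microdilution (M07-A9) in two clinical-isolate panels. US panel (331 isolates, 2010-2012): AA139 diluted in 0.01% acetic acid/0.1% BSA. Worldwide panel (445 isolates, 2011-2013, four regions): CAMHB, with 0.002% Tween 80 added for AA139 and polymyxin B.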

[3] = test system: P. aeruginosa clinical isolates; assay: microbe, parasite or virus in culture
How it was run: as §1

[4] = test system: E. coli clinical isolates; assay: microbe, parasite or virus in culture
How it was run: as §1

[5] = test system: K. pneumoniae (#3010 & ST258); assay: microbe, parasite or virus in culture; type: cell-based, Klebsiella pneumoniae
Procedure: (§2) The test media was cation-adjusted MHB (CAMHB, Becton Dickinson) supplemented with 2% Noble Agar (Becton Dickinson) and additionally for AA139 with 0.1% BSA. The agar dilution MIC values were determined as recommended by Clinical and Laboratory Standards Institute (CLSI)[47]. […] The inoculum for the spontaneous mutation plates targeted 10^9 to 10^10 colony-forming units (CFU) per plate. The viable count of each suspension was determined by plating serial ten-fold dilutions onto MHB/NA in duplicate. In addition, agar plates without drug were inoculated as positive controls. Plates were inspected for growth at both 24 and 48 h. Colony counts were determined manually. Using the counts at 48 h, the spontaneous mutation frequency was calculated using the following equation: (average number of colonies from duplicate selection plates)/(total number of cells inoculated onto each plate). If there were no colonies on the antibiotic selection plates, the spontaneous mutation frequency was reported as less than the frequency observed with one colony to indicate that the spontaneous mutation frequency was less than the limit of detection (one CFU).

[6] = test system: P. aeruginosa (UNT138-1 & ATCC 27853); assay: microbe, parasite or virus in culture; type: cell-based, Pseudomonas aeruginosa
Procedure: as §2

K. pneumoniae = assay: microbe, parasite or virus in culture; type: cell-based, Klebsiella pneumoniae; conditions: n=2 to 6, mode or median
P. aeruginosa [7] = assay: microbe, parasite or virus in culture; type: cell-based, Pseudomonas aeruginosa; conditions: P. aeruginosa FADDI-070 MDR, PmxR; n=2 to 6, mode or median
[8] = Worldwide isolates 2011-2013, K. pneumoniae n = 114
[9] = Worldwide isolates 2011-2013, P. aeruginosa n = 111
[10] = Worldwide isolates 2011-2013, E. coli n = 112

C[C@H]1[C@H](NC(=O)/C(=N\OC(C)(C)C(=O)O)c2csc(N)n2)C(=O)N1S(=O)(=O)O [AZT]
MIC Quality control range (P. aeruginosa [1]): 2 to 8 µg/mL

NC[C@H]1O[C@H](O[C@H]2[C@H](O)[C@@H](O[C@H]3O[C@H](CO)[C@@H](O)[C@H](N)[C@H]3O)[C@H](N)C[C@@H]2N)[C@H](N)C[C@@H]1O [TOB]
MIC Quality control range (P. aeruginosa [1]): 0.25 to 1 µg/mL

C[C@@H](O)[C@H]1C(=O)N2C(C(=O)O)=C(S[C@@H]3CN[C@H](C(=O)N(C)C)C3)[C@H](C)[C@H]12 [Meropenem, meropenem, reference compound]
MIC90 ([2]; Klebsiella pneumoniae, US isolates 2010–2012, K. pneumoniae Non-MDR, n = 24): 0.06 µg/mL (≈ 0.156 µM)
MIC90 ([2]; Klebsiella pneumoniae, US isolates 2010–2012, K. pneumoniae XDR, n = 55): > 16 µg/mL
MIC50 [2, 8]: 0.03 µg/mL (≈ 0.0782 µM)
MIC90 [2, 8]: > 16 µg/mL
MIC90 ([3]; Pseudomonas aeruginosa, US isolates 2010–2012, P. aeruginosa Non-MDR, n = 41): 16 µg/mL (≈ 41.7 µM)
MIC90 ([3]; Pseudomonas aeruginosa, US isolates 2010–2012, P. aeruginosa XDR, n = 37): > 16 µg/mL
MIC50 [3, 9]: 1 µg/mL (≈ 2.61 µM)
MIC90 [3, 9]: > 16 µg/mL
MIC90 ([4]; Escherichia coli, US isolates 2010–2012, E. coli MDR, n = 31): 16 µg/mL (≈ 41.7 µM)
MIC90 ([4]; Escherichia coli, US isolates 2010–2012, E. coli Non-MDR, n = 24): 0.03 µg/mL (≈ 0.0782 µM)
MIC50 [4, 10]: ≤ 0.015 µg/mL
MIC90 [4, 10]: 0.03 µg/mL (≈ 0.0782 µM)
MIC Quality control range (P. aeruginosa [1]): 0.12 to 1 µg/mL

CC(C)[C@@H]1NC(=O)[C@H](Cc2ccc(O)cc2)NC(=O)[C@H](Cc2c[nH]c3ccccc23)NC(=O)[C@@H](NC(=O)[C@H](Cc2ccccc2)NC(=O)CN)CSSC[C@@H](C(=O)N[C@@H](CC(N)=O)C(=O)O)NC(=O)[C@H](CCCNC(=N)N)NC(=O)[C@H](CCCNC(=N)N)NC(=O)[C@H](Cc2ccc(O)cc2)NC(=O)[C@@H]2CSSC[C@H](NC1=O)C(=O)N[C@@H](C)C(=O)N[C@@H](CCCNC(=N)N)C(=O)N[C@@H](CCCNC(=N)N)C(=O)N[C@@H](CC(N)=O)C(=O)NCC(=O)N[C@@H](C)C(=O)N[C@@H](CCCNC(=N)N)C(=O)N[C@@H](C(C)C)C(=O)N2 [AA139] (HELM PEPTIDE1{G.F.C.W.Y.V.C.A.R.R.N.G.A.R.V.C.Y.R.R.C.N}$PEPTIDE1,PEPTIDE1,3:R3-20:R3|PEPTIDE1,PEPTIDE1,7:R3-16:R3$$$V2.0)
Agar (Noble) Dilution MIC ([5]; K. pneumoniae 3010): 16 µg/mL
Agar (Noble) Dilution MIC ([5]; K. pneumoniae ST258): 16 µg/mL
MIC90 ([2]; US isolates 2010–2012, K. pneumoniae Non-MDR, n = 24): 4 µg/mL (≈ 1.57 µM)
MIC90 ([2]; Worldwide isolates 2011–2013, K. pneumoniae incl. non-MDR, MDR, XDR, n = 114): 4 µg/mL (≈ 1.57 µM)
MIC against colistin-resistant isolates (did not surpass) ([2]; all but two K. pneumoniae isolates with a colistin MIC of 8–≥32 μg mL^−1, US panel): ≤ 4 µg/mL
MIC against colistin-resistant isolates (did not surpass) ([3]; P. aeruginosa with a colistin MIC of >32 μg mL^−1, US panel): ≤ 8 µg/mL
MIC90 ([3]; US isolates 2010–2012, P. aeruginosa Non-MDR, n = 41): 8 µg/mL (≈ 3.14 µM)
MIC90 ([3]; US isolates 2010–2012, P. aeruginosa XDR, n = 37): 4 µg/mL (≈ 1.57 µM)
MIC90 ([3]; Worldwide isolates 2011–2013, P. aeruginosa incl. non-MDR, MDR, XDR, n = 111): 8 µg/mL (≈ 3.14 µM)
MIC90 (P. aeruginosa) ([3]; clinical isolates): 8.0 µg/mL (≈ 3.14 µM)
MIC against colistin-resistant isolates (did not surpass) ([4]; E. coli with a colistin MIC of 4 to 16 μg mL^−1, US panel): ≤ 0.5 µg/mL
MIC90 ([4]; US isolates 2010–2012, E. coli MDR, n = 31): 0.5 µg/mL (≈ 0.196 µM)
MIC90 ([4]; Worldwide isolates 2011–2013, E. coli incl. non-MDR, MDR, XDR, n = 112): 0.5 µg/mL (≈ 0.196 µM)
MIC90 (E. coli) ([4]; clinical isolates): 1.0 µg/mL (≈ 0.392 µM)
Agar (Noble) Dilution MIC ([6]; P. aeruginosa ATCC 27853): 8 µg/mL
Agar (Noble) Dilution MIC ([6]; P. aeruginosa UNT138-1): 16 µg/mL
MIC, Serum (50%) (K. pneumoniae; K. pneumoniae ATCC 700603 ESBL, OXA-2/SHV-18): 8 µg/mL (≈ 3.14 µM)
MIC, Survanta (5%) (K. pneumoniae; K. pneumoniae BAA-2146 NDM-1): 2 µg/mL (≈ 0.784 µM)
MIC, Serum (50%) (P. aeruginosa [7]): 8 µg/mL (≈ 3.14 µM)
MIC, Survanta (5%) (P. aeruginosa [7]): 8 µg/mL (≈ 3.14 µM)
